Like-named read-outs stand apart in the source and are kept apart here.
Biological target: T1, rat isoform of TRPM8 channels (Rattus norvegicus, UniProt Q8R455)
T1 construct: expressed in transfected cells
Assay: Ca2+ fluorimetric assay, menthol-activated channel
Assay type: cell-based
Protocol: TRPM8 blocker activity of all synthesized compounds was tested by Ca^2+ fluorimetric assays using HEK-293 cells stably expressing the rat isoform of TRPM8 channels, using menthol and AMTB as prototypical agonist and antagonist, respectively.
For measurement of the potency of the compounds, fluorimetric experiments were performed using HEK-293 cells (CRL-1573TM, American Type Culture Collection, LGC Promochem, Molsheim, France) that stably express rat TRPM8. The cells were seeded in 96-well plates (Corning Incorporated, Corning, NY) at a cell density of 40 000 cells 2 days before treatment. On the day of treatment, the medium was replaced with 100 μL of the dye loading solution Fluo-4 NW supplemented with probenecid 2.5 mM.
The tested molecules dissolved in DMSO were added at the desired concentrations, and the plates were incubated in darkness at 37 °C in a humidified atmosphere of 5% CO2 for 60 min. The fluorescence was measured using instrument settings appropriate for excitation at 485 nm and emission at 535 nm (POLARstar Omega BMG LABtech). A baseline recording of four cycles was recorded prior to stimulation with the agonist (100 μM menthol for TRPM8). The TRPM8 antagonist, 10 μM AMTB, was added to the medium containing the corresponding agonist to induce channel blockade. The changes in fluorescence intensity were recorded during 15 cycles more. The higher concentration of DMSO used in the experiment was added to the control wells. The cells’ fluorescence was measured before and after the addition of various concentrations of test compounds. The fluorescence values obtained are normalized to that prompted by the corresponding agonist (for channel activating compounds) or upon agonist and antagonist coexposure (for channel blocker compounds).

[1] = HEK-293 cells stably expressing rat TRPM8, menthol as agonist, mean ± SD of at least three measurements, read-out: IC50
[2] = supplementary xlsx, read-out: rTRPM8 IC50 (calcium microfluorimetric assays)

T1 sequence (Q8R455 whole entry, canonical isoform): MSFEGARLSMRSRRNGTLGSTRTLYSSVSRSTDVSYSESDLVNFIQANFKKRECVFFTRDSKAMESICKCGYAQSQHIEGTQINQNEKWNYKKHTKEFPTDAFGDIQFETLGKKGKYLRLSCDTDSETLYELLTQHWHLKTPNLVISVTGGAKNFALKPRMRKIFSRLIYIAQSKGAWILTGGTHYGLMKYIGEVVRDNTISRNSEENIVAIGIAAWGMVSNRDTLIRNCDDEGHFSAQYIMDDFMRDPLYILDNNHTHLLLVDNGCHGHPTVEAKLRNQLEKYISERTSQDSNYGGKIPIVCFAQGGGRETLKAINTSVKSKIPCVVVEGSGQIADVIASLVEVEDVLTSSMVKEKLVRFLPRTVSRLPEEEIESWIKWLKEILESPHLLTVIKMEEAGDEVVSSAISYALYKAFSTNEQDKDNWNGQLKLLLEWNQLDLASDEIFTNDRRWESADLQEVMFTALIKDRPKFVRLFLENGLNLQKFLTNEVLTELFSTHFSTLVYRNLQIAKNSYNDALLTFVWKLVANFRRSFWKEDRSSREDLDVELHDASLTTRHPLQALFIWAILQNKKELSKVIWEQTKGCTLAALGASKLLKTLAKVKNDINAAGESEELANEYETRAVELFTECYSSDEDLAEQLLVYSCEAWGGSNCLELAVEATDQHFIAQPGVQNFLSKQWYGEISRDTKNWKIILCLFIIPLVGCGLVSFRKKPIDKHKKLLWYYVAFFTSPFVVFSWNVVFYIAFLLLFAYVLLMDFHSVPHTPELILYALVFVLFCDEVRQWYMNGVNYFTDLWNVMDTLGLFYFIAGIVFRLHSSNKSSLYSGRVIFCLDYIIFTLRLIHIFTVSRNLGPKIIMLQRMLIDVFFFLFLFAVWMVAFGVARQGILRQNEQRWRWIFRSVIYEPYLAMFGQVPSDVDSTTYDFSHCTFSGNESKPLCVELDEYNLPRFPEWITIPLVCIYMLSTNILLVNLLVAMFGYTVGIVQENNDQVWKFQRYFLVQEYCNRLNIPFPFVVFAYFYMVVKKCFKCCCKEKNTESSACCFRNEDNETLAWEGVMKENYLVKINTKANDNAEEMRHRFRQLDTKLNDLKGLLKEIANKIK

Structure (SMILES) | IC50 [1] [µM] | IC50 [2] [µM] | rTRPM8 IC50 (calcium microfluorimetric assays) (supplementary xlsx) [µM]
COC(=O)[C@@H]1Cc2c([nH]c3ccccc23)[C@H](c2ccccc2)N1Cc1ccccc1 [6b, (1S,3S)-Methyl 2-Benzyl-1-phenyl-2,3,4,9-tetrahydro-1H-pyrido[3,4-b]indole-3-carboxylate] | 1.6 ± 0.9 | 1.4 ± 1.3 | 
CC(C)C[C@H]1N[C@H](C(=O)NCc2ccc(F)cc2)Cc2c1[nH]c1ccccc21 [10a, (1R,3S)-N-(4-Fluorobenzyl)-1-isobutyl-2,3,4,9-tetrahydro-1H-pyrido[3,4-b]indole-3-carboxamide] | 4.6 ± 1.3 |  | 
CC(C)C[C@@H]1N[C@H](C(=O)NCc2ccc(F)cc2)Cc2c1[nH]c1ccccc21 [10b, (1S,3S)-N-(4-Fluorobenzyl)-1-isobutyl-2,3,4,9-tetrahydro-1H-pyrido[3,4-b]indole-3-carboxamide] | 6.2 ± 1.2 |  | 
COC(=O)CC[C@@H]1N[C@H](C(=O)NCc2ccc(F)cc2)Cc2c1[nH]c1ccccc21 [11b, Methyl 3-((1S,3S)-3-((4-Fluorobenzyl)carbamoyl)-2,3,4,9-tetrahydro-1H-pyrido[3,4-b]indol-1-yl)propanoate] | 3 ± 1.2 |  | 
O=C(O)CC[C@@H]1N[C@H](C(=O)NCc2ccc(F)cc2)Cc2c1[nH]c1ccccc21 [12b, 3-((1S,3S)-3-((4-Fluorobenzyl)carbamoyl)-2,3,4,9-tetrahydro-1H-pyrido[3,4-b]indol-1-yl)propanoic Acid] | 22 ± 1.4 |  | 
CC(C)C[C@@H]1c2[nH]c3ccccc3c2C[C@H]2C(=O)N[C@@H](Cc3ccccc3)C(=O)N12 [25a, (3S,6R,12aS)-3-Benzyl-6-isobutyl-2,3,12,12a-tetrahydropyrazino[1′,2′:1,6]pyrido[3,4-b]indole-1,4(6H,7H)-dione] | 4.1 ± 1.1 |  | 
CC(C)C[C@H]1c2[nH]c3ccccc3c2C[C@H]2C(=O)N[C@@H](Cc3ccccc3)C(=O)N21 [25b, (3S,6S,12aS)-3-Benzyl-6-isobutyl-2,3,12,12a-tetrahydropyrazino[1′,2′:1,6]pyrido[3,4-b]indole-1,4(6H,7H)-dione] | 1.3 ± 0.6 | 0.9 ± 1.2 | 
O=C1NCC(=O)N2[C@H](c3ccc(Cl)cc3)c3[nH]c4ccccc4c3C[C@@H]12 [27a, (6R,12aS)-6-(4-Chlorophenyl)-2,3,12,12a-tetrahydropyrazino[1′,2′:1,6]pyrido[3,4-b]indole-1,4(6H,7H)-dione] | 1.5 ± 1.1 |  | 
O=C1NCC(=O)N2[C@@H](c3ccc(Cl)cc3)c3[nH]c4ccccc4c3C[C@@H]12 [27b, (6S,12aS)-6-(4-Chlorophenyl)-2,3,12,12a-tetrahydropyrazino[1′,2′:1,6]pyrido[3,4-b]indole-1,4(6H,7H)-dione] | 1.7 ± 0.8 | 1.2 ± 1.7 | 
COc1ccc(CN2C(=O)[C@@H]3Cc4c([nH]c5ccccc45)[C@@H](CC(C)C)N3C2=O)cc1 [29a, (5R,11aS)-5-Isobutyl-2-(4-methoxybenzyl)-5,6,11,11a-tetrahydro-1H-imidazo[1′,5′:1,6]pyrido[3,4-b]indole-1,3(2H)-dione] | 2.8 ± 1.2 |  | 22.9 ± 1.4
COc1ccc(CN2C(=O)[C@H]3Cc4c([nH]c5ccccc45)[C@H](CC(C)C)N3C2=O)cc1 [29a′, (5S,11aR)-5-Isobutyl-2-(4-methoxybenzyl)-5,6,11,11a-tetrahydro-1H-imidazo[1′,5′:1,6]pyrido[3,4-b]indole-1,3(2H)-dione] | 22.9 ± 1.4 |  | 
Cc1ccc(CN2C(=O)[C@@H]3Cc4c([nH]c5ccccc45)[C@@H](c4ccc(Cl)cc4)N3C2=O)cc1 [30a, (5R,11aS)-5-(4-Chlorophenyl)-2-(4-methylbenzyl)-5,6,11,11a-tetrahydro-1H-imidazo[1′,5′:1,6]pyrido[3,4-b]indole-1,3(2H)-dione] | 0.8 ± 0.4 |  | 2.3 ± 0.8
Cc1ccc(CN2C(=O)[C@H]3Cc4c([nH]c5ccccc45)[C@H](c4ccc(Cl)cc4)N3C2=O)cc1 [30a′, (5S,11aR)-5-(4-Chlorophenyl)-2-(4-methylbenzyl)-5,6,11,11a-tetrahydro-1H-imidazo[1′,5′:1,6]pyrido[3,4-b]indole-1,3(2H)-dione] | 2.3 ± 0.8 |  | 
O=C1[C@H]2Cc3c([nH]c4ccccc34)[C@H](c3ccc(Cl)cc3)N2C(=O)N1Cc1ccc(F)cc1 [31a′, (5S,11aR)-5-(4-Chlorophenyl)-2-(4-fluorobenzyl)-5,6,11,11a-tetrahydro-1H-imidazo[1′,5′:1,6]pyrido[3,4-b]indole-1,3(2H)-dione] | > 30 |  | 
O=C1[C@@H]2Cc3c([nH]c4ccccc34)[C@@H](c3ccc(F)cc3)N2C(=O)N1Cc1ccccc1 [33a, (5R,11aS)-2-Benzyl-5-(4-fluorophenyl)-5,6,11,11a-tetrahydro-1H-imidazo[1′,5′:1,6]pyrido[3,4-b]indole-1,3(2H)-dione] | 6.4 ± 1.2 |  | 17.5 ± 1.4
O=C1[C@H]2Cc3c([nH]c4ccccc34)[C@H](c3ccc(F)cc3)N2C(=O)N1Cc1ccccc1 [33a′, (5S,11aR)-2-Benzyl-5-(4-fluorophenyl)-5,6,11,11a-tetrahydro-1H-imidazo[1′,5′:1,6]pyrido[3,4-b]indole-1,3(2H)-dione] | 17.5 ± 1.4 |  | 
NCCCN1C(=O)[C@@H]2Cc3c([nH]c4ccccc34)[C@@H](c3ccc(F)cc3)N2C1=O [35a, (5R,11aS)-2-(3-Aminopropyl)-5-(4-fluorophenyl)-5,6,11,11a-tetrahydro-1H-imidazo[1′,5′:1,6]pyrido[3,4-b]indole-1,3(2H)-dione] | 5.1 ± 1.2 |  | 27.2 ± 1.4
NCCCN1C(=O)[C@H]2Cc3c([nH]c4ccccc34)[C@H](c3ccc(F)cc3)N2C1=O [35a′, (5S,11aR)-2-(3-Aminopropyl)-5-(4-fluorophenyl)-5,6,11,11a-tetrahydro-1H-imidazo[1′,5′:1,6]pyrido[3,4-b]indole-1,3(2H)-dione] | 27.2 ± 1.4 |  | 
O=C1[C@@H]2Cc3c([nH]c4ccccc34)[C@@H](c3ccc(F)cc3)N2C(=O)N1c1cccc(C(F)(F)F)c1 [36a, (5R,11aS)-5-(4-Fluorophenyl)-2-(3-(trifluoromethyl)phenyl)-5,6,11,11a-tetrahydro-1H-imidazo[1′,5′:1,6]pyrido[3,4-b]indole-1,3(2H)-dione] | 2.8 ± 1.5 |  | 7.8 ± 2.4
O=C1[C@H]2Cc3c([nH]c4ccccc34)[C@H](c3ccc(F)cc3)N2C(=O)N1c1cccc(C(F)(F)F)c1 [36a′, (5S,11aR)-5-(4-Fluorophenyl)-2-(3-(trifluoromethyl)phenyl)-5,6,11,11a-tetrahydro-1H-imidazo[1′,5′:1,6]pyrido[3,4-b]indole-1,3(2H)-dione] | 7.8 ± 2.4 |  | 
O=C1[C@@H]2Cc3c([nH]c4ccccc34)[C@@H](c3ccc(F)cc3)N2C(=O)N1c1ccccc1F [37a, (5R,11aS)-2-(2-Fluorophenyl)-5-(4-fluorophenyl)-5,6,11,11a-tetrahydro-1H-imidazo[1′,5′:1,6]pyrido[3,4-b]indole-1,3(2H)-dione] | 4.4 ± 1.3 |  | 5.1 ± 2.1
O=C1[C@H]2Cc3c([nH]c4ccccc34)[C@H](c3ccc(F)cc3)N2C(=O)N1c1ccccc1F [37a′, (5S,11aR)-2-(2-Fluorophenyl)-5-(4-fluorophenyl)-5,6,11,11a-tetrahydro-1H-imidazo[1′,5′:1,6]pyrido[3,4-b]indole-1,3(2H)-dione] | 5.1 ± 2.1 |  | 
O=C1[C@@H]2Cc3c([nH]c4ccccc34)[C@@H](c3ccc(F)cc3)N2C(=O)N1c1ccc(F)cc1 [38a, (5R,11aS)-2,5-Bis(4-fluorophenyl)-5,6,11,11a-tetrahydro-1H-imidazo[1′,5′:1,6]pyrido[3,4-b]indole-1,3(2H)-dione] | 6.7 ± 1.2 |  | 7.2 ± 0.9

— PMC8009520, “Exploration of TRPM8 Binding Sites by β-Carboline-Based Antagonists and Their In Vitro Characterization and In Vivo Analgesic Activities” (Journal of Medicinal Chemistry, 2020)
